Results as given in patent US20030139431A1 (priority 2001, published 2003).

How the values were obtained:
rNPFF1 [1] = target: T1, rNPFF1 (Rattus norvegicus, UniProt Q9EP86); experiment: Functional assay (agonist potency, intrinsic activity) at cloned rat NPFF1 receptor; assay type: cell-based; conditions: for rNPFF1 IA (intrinsic activity): percent of maximum response elicited by neuropeptide FF, rat NPFF1; for EC50: recombinant rat NPFF1
T1 construct: expressed in transfected cells
Method: (§1) Intrinsic activity of a compound is measured as the percent of maximum response.

rNPFF2 [2] = target: T2, rNPFF2 (Rattus norvegicus, UniProt Q9EQD2); experiment: Binding affinity at cloned recombinant rat NPFF2 receptor
T2 construct: expressed in transfected cells
T2 sequence (Q9EQD2 whole entry): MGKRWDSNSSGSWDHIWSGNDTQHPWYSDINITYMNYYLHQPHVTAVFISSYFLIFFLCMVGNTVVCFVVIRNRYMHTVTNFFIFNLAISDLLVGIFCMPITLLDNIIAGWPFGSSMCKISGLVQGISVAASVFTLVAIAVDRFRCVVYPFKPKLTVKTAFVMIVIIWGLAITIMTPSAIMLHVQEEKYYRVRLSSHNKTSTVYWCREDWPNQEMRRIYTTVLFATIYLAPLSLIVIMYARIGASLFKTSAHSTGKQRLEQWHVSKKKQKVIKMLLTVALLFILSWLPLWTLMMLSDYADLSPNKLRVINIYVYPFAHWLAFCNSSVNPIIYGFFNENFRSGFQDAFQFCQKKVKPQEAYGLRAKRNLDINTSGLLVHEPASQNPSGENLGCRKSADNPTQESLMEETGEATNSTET

rNPFF2 [3] = target: T2, rNPFF2; experiment: Functional assay (agonist potency, intrinsic activity) at cloned rat NPFF2 receptor; assay type: cell-based; conditions: for rNPFF2 IA (intrinsic activity): percent of maximum response elicited by neuropeptide FF, rat NPFF2; for EC50: recombinant rat NPFF2
Method: as §1

hNPFF2 = target: T3, hNPFF2 (Homo sapiens, UniProt Q9Y5X5); experiment: Binding affinity at cloned recombinant human NPFF2 receptor
T3 construct: expressed in transfected cells
T3 sequence (Q9Y5X5 103-522): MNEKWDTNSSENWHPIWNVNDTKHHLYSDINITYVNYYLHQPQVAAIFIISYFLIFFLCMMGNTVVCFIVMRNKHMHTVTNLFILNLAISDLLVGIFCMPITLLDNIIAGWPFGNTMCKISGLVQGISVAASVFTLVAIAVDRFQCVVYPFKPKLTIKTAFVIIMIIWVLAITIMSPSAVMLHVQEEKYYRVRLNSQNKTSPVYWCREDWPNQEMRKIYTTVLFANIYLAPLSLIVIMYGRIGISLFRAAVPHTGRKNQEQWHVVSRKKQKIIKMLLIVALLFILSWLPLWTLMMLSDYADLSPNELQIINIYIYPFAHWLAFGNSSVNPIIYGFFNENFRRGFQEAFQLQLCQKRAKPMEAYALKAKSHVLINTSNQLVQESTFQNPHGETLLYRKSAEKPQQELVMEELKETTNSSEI

rNPFF1 [4] = target: T1, rNPFF1; experiment: Binding affinity at cloned recombinant rat NPFF1 receptor
hNPFF1 = target: T4, hNPFF1 (Homo sapiens, UniProt Q9GZQ6); experiment: Binding affinity at cloned recombinant human NPFF1 receptor
T4 construct: expressed in transfected cells
T4 sequence (Q9GZQ6 whole entry): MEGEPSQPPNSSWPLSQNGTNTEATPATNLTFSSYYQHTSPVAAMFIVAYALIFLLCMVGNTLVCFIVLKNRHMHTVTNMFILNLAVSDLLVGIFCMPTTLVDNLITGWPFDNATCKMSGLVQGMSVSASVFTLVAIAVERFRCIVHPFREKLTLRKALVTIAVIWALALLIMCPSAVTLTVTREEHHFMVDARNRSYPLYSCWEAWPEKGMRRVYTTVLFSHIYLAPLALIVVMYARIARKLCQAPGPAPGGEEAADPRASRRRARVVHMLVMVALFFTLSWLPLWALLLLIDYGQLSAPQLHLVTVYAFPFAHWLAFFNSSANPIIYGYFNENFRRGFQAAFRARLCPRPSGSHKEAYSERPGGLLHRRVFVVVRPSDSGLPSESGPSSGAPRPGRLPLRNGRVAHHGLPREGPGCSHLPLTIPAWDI

T1 sequence (Q9EP86 whole entry): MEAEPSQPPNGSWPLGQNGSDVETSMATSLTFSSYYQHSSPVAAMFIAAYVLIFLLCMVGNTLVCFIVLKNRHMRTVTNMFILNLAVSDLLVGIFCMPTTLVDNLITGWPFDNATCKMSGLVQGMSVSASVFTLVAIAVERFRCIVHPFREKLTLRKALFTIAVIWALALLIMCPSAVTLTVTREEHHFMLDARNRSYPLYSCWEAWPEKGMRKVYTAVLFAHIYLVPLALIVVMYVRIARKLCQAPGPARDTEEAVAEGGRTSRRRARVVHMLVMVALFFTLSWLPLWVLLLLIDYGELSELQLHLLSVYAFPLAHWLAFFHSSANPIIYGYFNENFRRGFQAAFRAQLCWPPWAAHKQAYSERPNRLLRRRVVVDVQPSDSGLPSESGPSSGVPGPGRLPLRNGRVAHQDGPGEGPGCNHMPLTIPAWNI

Row | SMILES | rNPFF1 IA (intrinsic activity) (rNPFF1 [1]) | EC50 (rNPFF1 [1]) | Ki (rNPFF2 [2]) | rNPFF2 IA (intrinsic activity) (rNPFF2 [3]) | EC50 (rNPFF2 [3]) | Ki (hNPFF2) | Ki (rNPFF1 [4]) | Ki (hNPFF1)
1 | Cc1nc(NC(=N)N)nc2ccccc12 [Compound 1001, N-(4-methyl-2-quinazolinyl)guanidine] | Inactive | > 10000 nM | > 10000 nM | 16% NPFF | 3080 nM | 2040 nM | 202 nM | 240 nM
2 | Cc1nc(NC(=N)N)nc2ccc3ccccc3c12 [Compound 1007, N-(1-methylbenzo[f]quinazolin-3-yl)guanidine] | Inactive | > 10000 nM | 699 nM | 66% NPFF | 1300 nM | 260 nM | 146 nM | 53 nM
3 | Cc1nc(NC(=N)N)nc2ccc(OC(F)(F)F)cc12 [Compound 1030, N-[4-methyl-6-(trifluoromethoxy)-2-quinazolinyl]guanidine] | Inactive | > 10000 nM | 4860 nM | 85% NPFF | 625 nM |  | 176 nM | 
4 | CCCCCOc1ccc2nc(NC(=N)N)nc(C)c2c1 [Compound 1031, N-[4-methyl-6-(pentyloxy)-2-quinazolinyl]guanidine] | Inactive | > 10000 nM | 3220 nM | 66% NPFF | 2190 nM |  | 794 nM | 
5 | Cc1nc(NC(=N)N)nc2ccc(Oc3ccccc3)cc12 [Compound 1032, N-(4-methyl-6-phenoxy-2-quinazolinyl)guanidine] | 31% NPFF | 374 nM | 1640 nM | 93% NPFF | 459 nM |  | 291 nM | 
6 | Cc1ccc(Oc2ccc3nc(NC(=N)N)nc(C)c3c2)cc1 [Compound 1033, N-[4-methyl-6-(4-methylphenoxy)-2-quinazolinyl]guanidine] | Inactive | > 10000 nM | 5860 nM | 51% NPFF | 3160 nM |  | 481 nM | 
7 | Cc1nc(NC(=N)N)nc2ccc(CCCC(C)O)cc12 (centres unmarked) [Compound 1034, N-(6-[1-(4-hydroxyl-pentyl)]-4-methyl-2-quinazolino)guanidine] | 63% NPFF | 610 nM | 1540 nM | 101% NPFF | 394 nM |  | 82 nM | 
8 | Cc1nc(NC(=N)N)nc2cc(C(C)O)ccc12 (centres unmarked) [Compound 1035, N-[7-(1-hydroxyethyl)-4-methyl-2-quinazolinyl]guanidine] | Inactive | > 10000 nM | 1180 nM | 52% NPFF | 3160 nM |  | 842 nM | 
9 | Cc1nc(NC(=N)N)nc2cc(OC(F)(F)F)ccc12 [Compound 1036, N-[4-methyl-7-(trifluoromethoxy)-2-quinazolinyl]guanidine] | Inactive | > 10000 nM | 2460 nM | 78% NPFF | 369 nM |  | 132 nM | 
10 | Cc1nc(NC(=N)N)nc2cc3c(cc12)C=CCC3 [Compound 1037, N-(4-methyl-8,9-dihydrobenzo[g]quinazolin-2-yl)guanidine] | Inactive | > 10000 nM | 824 nM | 71% NPFF | 3160 nM |  | 143 nM | 
11 | CCC(C)c1ccc2nc(NC(=N)N)nc(C)c2c1 (centres unmarked) [Compound 2002, N-(6-sec-butyl-4-methyl-2-quinazolinyl)guanidine] | 51% NPFF | 250 nM | 461 nM | 92% NPFF | 423 nM |  | 77 nM | 
12 | Cc1nc(NC(=N)N)nc2ccc(Cc3ccccc3)cc12 [Compound 2003, N-(6-benzyl-4-methyl-2-quinazolinyl)guanidine] | 56% NPFF | 171 nM | 195 nM | 89% NPFF | 49 nM |  | 371 nM | 
13 | CCCCc1ccc2nc(NC(=N)N)nc(C)c2c1 [Compound 2004, N-(6-butyl-4-methyl-2-quinazolinyl)guanidine] | 40% NPFF | 194 nM | 262 nM | 101% NPFF | 124 nM |  | 392 nM | 
14 | CCCCCCc1ccc2nc(NC(=N)N)nc(C)c2c1 [Compound 2005, N-(6-hexyl-4-methyl-2-quinazolinyl)guanidine] | 56% NPFF | 137 nM | 268 nM | 81% NPFF | 105 nM |  | 88 nM | 
15 | CCCCCCCc1ccc2nc(NC(=N)N)nc(C)c2c1 [Compound 2006, N-(6-heptyl-4-methyl-2-quinazolinyl)guanidine] | 38% NPFF | 886 nM | 3670 nM | 47% NPFF | 1950 nM |  | 788 nM | 
16 | Cc1ccc2nc(NC(=N)N)cc(C)c2c1 [Compound 4001, N-(4,6-dimethyl-2-quinolinyl)guanidine] | Inactive | > 10000 nM | 556 nM | 68% NPFF | 404 nM | 150 nM | 30 nM | 21 nM
17 | Cc1cc(NC(=N)N)nc2ccc(-c3ccccc3)cc12 [Compound 4003, N-(4-methyl-6-phenyl-2-quinolinyl)guanidine] | Inactive | > 10000 nM | 1250 nM | 26% NPFF | 3160 nM | 2120 nM | 176 nM | 207 nM
18 | COc1ccc2nc(NC(=N)N)cc(C)c2c1 [Compound 4004, N-(6-methoxy-4-methyl-2-quinolinyl)guanidine] | Inactive | > 10000 nM | 2580 nM | 65% NPFF | 1530 nM | 1210 nM | 153 nM | 113 nM
19 | Cc1cc(NC(=N)N)nc2cc(F)ccc12 [Compound 4007, N-(7-fluoro-4-methyl-2-quinolinyl)guanidine] | Inactive | > 10000 nM | 619 nM | 17% NPFF | 2640 nM |  | 44 nM | 
20 | Cc1cc(C)c2c(C)cc(NC(=N)N)nc2c1 [Compound 4008, N-(4,5,7-trimethyl-2-quinolinyl)guanidine] | Inactive | > 10000 nM | 882 nM | 65% NPFF | 411 nM | 514 nM | 64 nM | 82 nM
21 | Cc1cc(NC(=N)N)nc2ccc3ccccc3c12 [Compound 4009, N-(1-methylbenzo[f]quinolin-3-yl)guanidine] | Inactive | > 10000 nM | 871 nM | 70% NPFF | 3160 nM | 826 nM | 153 nM | 144 nM
22 | CCCCc1ccc2nc(NC(=N)N)cc(C)c2c1 [Compound 5001, N-(6-butyl-4-methyl-2-quinolinyl)guanidine] | 28% NPFF | 123 nM | 115 nM | 82% NPFF | 69 nM |  | 24 nM | 
